Source: patent US20230330134A1, “METHOD OF PROPHYLAXIS OF CORONAVIRUS AND/OR RESPIRATORY SYNCYTIAL VIRUS INFECTION” (Starpharma Pty Ltd., priority 2020, published 2023)
Structures can show the parent of a compound that is named as a salt. Where two headings read alike, the source gives them in different places.

Legend:
[1] = test system: SARS-CoV-2 (hCoV-19/Australia/VIC01/2020); type: cell-based
[2] = test system: SARS-CoV-2 (2019-nCoV/USA-WA1/2020); test: microbe, parasite or virus in culture; type: cell-based; details: for EC50: read-out: EC50
[3] = test system: SARS-CoV-2 hCoV-19/Australia/VIC01/2020; test: microbe, parasite or virus in culture; type: cell-based; details: Severe acute respiratory syndrome coronavirus 2, 96 h; positive control; Vero cells; […]; CPE by MTT after 4 days; read-out: EC50
[4] = test system: SARS-CoV-2 2019-nCoV/USA-WAl/2020; test: Antiviral activity in primary human bronchial epithelial cells (HBEpC); type: cell-based; details: highest concentration tested (600 µg/mL), added 1 hour prior to infection, day 4
SARS = details: cited from earlier work
BetaCoV/Wuhan/WIV04/2019 = details: against BetaCoV/Wuhan/WIV04/2019; cited from earlier work

CCN(CCO)CCCC(C)Nc1ccnc2cc(Cl)ccc12 (centres unmarked) [Hydroxychloroquine sulfate]
effect on virus replication ([1]; 15 µM, any time point): no discernible effect

CCC(CC)COC(=O)[C@H](C)N[P@](=O)(OC[C@H]1O[C@@](C#N)(c2ccc3c(N)ncnn23)[C@H](O)[C@@H]1O)Oc1ccccc1 [Remdesivir, reference compound]
EC50 ([2]; Severe acute respiratory syndrome coronavirus 2, Calu-3): 0.589 µM
EC50 ([2]; Severe acute respiratory syndrome coronavirus 2, Vero C1008): 0.791 µM
activity in the plaque assay ([2]; positive control): active
inhibition of virus replication [1]: < 1 log10 TCID50
EC50 [3]: 5.05 µM

iota-carrageenan [reference compound]
reduction of infection by nucleocapsid ELISA [4]: 17%
reduction of infection in the plaque assay [4]: 21%

CCN(CC)CCCC(C)Nc1ccnc2cc(Cl)ccc12 (centres unmarked) [chloroquine]
IC50 (SARS; against SARS): 8 µM
CC50 (SARS): 261 µM
EC50 (BetaCoV/Wuhan/WIV04/2019): 1.13 µM
